Tests used:
Format in all cases: cell-based
[1] = Cytotoxicity (CC50) in MT4 cells, mock-infected; conditions: human, mock-infected
How it was run: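 Uninfected MT4 cells, 2000 per well, incubated with compound 5 days at 37 °C. Viability by CellTiter-Glo luminescence after 2–3 min lysis at room temperature.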

OCT2 = OCT2 (Homo sapiens (Human), UniProt O15244); assay: OCT2 inhibition assay (14C-TEA uptake, OCT2-transfected MDCKII cells)
Experimental: MDCKII cells were maintained in minimal essential medium (MEM) with 1% Pen/Strep, 10% fetal bovine serum, and 0.25 mg/mL hygromycin B in an incubator set at 37° C., 90% humidity and 5% CO2. 24 hours prior to assay, media containing 5 mM sodium butyrate were added to MDCKII cells in flasks, and cells were grown to 80-90% confluence. On assay day, cells were trypsinized and resuspended in Krebs-Henseleit Buffer (KHB), pH 7.4 at […]. Cells were preincubated for 15 min in assay plate before addition of test compound or substrate.
Test compounds were serially diluted in DMSO and then spiked (2 μL) into in 0.4 mL KHB buffer containing wild-type or OCT2-transfected cells and incubated for 10 minutes. Assay was initiated with the addition of 0.1 mL of 100 μM ^14C-TEA in KHB buffer (20 μM final concentration after mixing). The concentration of TEA is based on the Km. After 10 minutes of incubation, the assay mixture was quenched with addition of 0.5 mL of ice-cold 1×PBS buffer. Samples were then centrifuged at 1000 rpm for 5 min and supernatants were removed. Wash steps were repeated four times with ice-cold PBS. Finally, the cell pellets were lysed with 0.2N NaOH and let sit at room temperature for at least 30 min to ensure complete lysis. Samples were then counted on liquid scintillation counter and dpm counts were used to perform the following calculations. The % inhibition was calculated as follows: % inhibition=[1−{[OCT2]i−[WT]ni}/{[OCT2]ni−[WT]ni}]*100 where, [OCT2]i represents the dpm count in the presence of test compound for either OCT2 cells, […] of test compound for OCT2 cells and [WT]ni represents the dpm count in the absence of test compound for wild type cells, respectively.

HIV-1 N155H/Q148R = conditions: MT2 cells; mean EC50 mutant / mean EC50 wt
Experimental: (§1) For the antiviral assay utilizing MT-2 cells, 50 μL of 2× test concentration of 3-fold serially diluted compound in culture medium with 10% FBS was added to each well of a 96-well plate (9 concentrations) in triplicate. MT-2 cells were infected with wild-type or mutant variants of HIV-1 for 3 hours using a volume of viral inoculum determined to produce 90% cell killing. Fifty microliters of infected cell suspension in culture medium with 10% FBS (˜1.5×10^4 cells) was then added to each well containing 50 μL of serially diluted compound. The plates with HIV-infected cultures were then incubated at 37° C. for 5 days in the presence of the tested compounds. After 5 days of incubation, 100 μL of CellTiter-Glo™ Reagent (catalog # G7571, Promega Biosciences, Inc., Madison, Wis.) was added to each well. Cell lysis was carried out by incubating at room temperature for 10 min followed by a chemiluminescence read-out.
(§2) The chemiluminescence readout from the 10-point antiviral dose response was analyzed directly by curve fitting with equation (I) to determine the EC50.
(§3) where y=Cell Survival, M=maximum cell survival enabled by drug protection, H=baseline cell survival without drug protection, n=Hill coefficient of the antiviral dose response, m=Hill coefficient of the cytotoxicity dose response, and [I]=inhibitor concentration.
(§4) EC50 values (mean±standard deviation) were calculated from at least three independent experiments performed in triplicate. The fold-change in antiviral activity of tested compounds was calculated as a ratio of the mean EC50 for each mutant virus divided by the mean EC50 of the control WT virus.

HIV-1 G140S/Q148R = conditions: MT2 cells; mean EC50 mutant / mean EC50 wt
Experimental: as §1, §2, §3, §4

HIV-1 E92Q/N155H = conditions: MT2 cells; mean EC50 mutant / mean EC50 wt
Experimental: as §1, §2, §3, §4

HIV-1 E138K/Q148K = conditions: MT2 cells; mean EC50 mutant / mean EC50 wt
Experimental: as §1, §2, §3, §4

HIV-IIIb = assay: Antiviral assay in MT4 cells; conditions: Human immunodeficiency virus 1, IIIB, MT4, 120 h, MT4 cells, HIV-IIIb, 5 days; read-out: EC50
How it was run: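 MT4 cells infected with HIV-IIIb (0.004 m.o.i.) or mock-infected, then plated at 2000 cells per well with compound. After 5 days at 37 °C, cell viability read by CellTiter-Glo chemiluminescence.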

Sequence of OCT2 (O15244 whole entry): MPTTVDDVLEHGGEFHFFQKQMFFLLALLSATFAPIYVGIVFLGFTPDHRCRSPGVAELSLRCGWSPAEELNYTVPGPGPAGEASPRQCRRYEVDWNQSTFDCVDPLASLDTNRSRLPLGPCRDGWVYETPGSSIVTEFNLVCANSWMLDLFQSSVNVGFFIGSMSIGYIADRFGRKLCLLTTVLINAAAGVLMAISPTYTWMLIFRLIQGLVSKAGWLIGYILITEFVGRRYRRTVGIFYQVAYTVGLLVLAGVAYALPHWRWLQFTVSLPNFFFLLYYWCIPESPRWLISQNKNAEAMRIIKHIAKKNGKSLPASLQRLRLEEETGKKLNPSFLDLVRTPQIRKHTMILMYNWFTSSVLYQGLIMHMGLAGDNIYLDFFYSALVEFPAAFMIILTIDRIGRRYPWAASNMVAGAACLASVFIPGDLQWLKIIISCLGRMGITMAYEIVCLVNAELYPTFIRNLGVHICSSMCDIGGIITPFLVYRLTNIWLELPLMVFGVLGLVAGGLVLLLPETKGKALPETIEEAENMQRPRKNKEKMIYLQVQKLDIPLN

## CCN1C(=O)c2c(O)c(=O)c(C(=O)NCc3ccc(F)c(Cl)c3F)cn2[C@H]2CCO[C@H]21 [Compound 25b]
[1]
  CC50 at 5 days: 26.7 µM
OCT2
  IC50: 10 µM
HIV-1 N155H/Q148R
  Resistance fold shift N155H/Q148R vs. wild type: 2.2 fold shift
HIV-1 G140S/Q148R
  Resistance fold shift G140S/Q148R vs. wild type: 1.9 fold shift
HIV-1 E92Q/N155H
  Resistance fold shift E92Q/N155H vs. wild type: 2.2 fold shift
HIV-1 E138K/Q148K
  Resistance fold shift E138K/Q148K vs. wild type: 2.3 fold shift
HIV-IIIb
  EC50: 0.00437 µM

## CCN1C(=O)c2c(O)c(=O)c(C(=O)NCc3ccc(F)c(Cl)c3F)cn2[C@H]2CCOC[C@H]21 [Compound 39]
[1]
  CC50 at 5 days: 12.8 µM
OCT2
  IC50: 10 µM
HIV-1 N155H/Q148R
  Resistance fold shift N155H/Q148R vs. wild type: 2.8 fold shift
HIV-1 G140S/Q148R
  Resistance fold shift G140S/Q148R vs. wild type: 1.8 fold shift
HIV-1 E92Q/N155H
  Resistance fold shift E92Q/N155H vs. wild type: 2.3 fold shift
HIV-1 E138K/Q148K
  Resistance fold shift E138K/Q148K vs. wild type: 1.5 fold shift
HIV-IIIb
  EC50: 0.00258 µM

Source: patent publication US9795602B2, “Polycyclic-carbamoylpyridone compounds and their pharmaceutical use” (Gilead Sciences, Inc., priority 2014, dated 2017)
